The text below walks through data of article PMC11345829, “Discovery of Potent Isoquinolinequinone N-Oxides to Overcome Cancer Multidrug Resistance” (Journal of Medicinal Chemistry, 2024).

Format in all cases: cell-based, human
In assay [1] the test system is NCI-H460 cells. Put plainly: Cell cycle profile, PI staining flow cytometry. Particulars: 48 h; for cell cycle profile: 25 at 0.35 and 0.7 μM, doxorubicin 50 nM. As for the experimental part:
The effect of 25 on the cell cycle profile of NCI-H460 cells was assessed.
Figure 8 Effect of compound 25 on the cell cycle profile of NCI-H460 cells, analyzed by flow cytometry (PI staining). […] (A) Frequency (%) of cell cycle phases for each condition. (B) Representative cell cycle histograms. Results are the mean ± SEM from at least 3 independent experiments. * p ≤ 0.05, when comparing DMSO vs compound treatment.
Collected cells were then fixed in ice-cold 70% ethanol (Fisher Scientific) overnight. Cells were then centrifuged again and resuspended in 5 μg/mL of PI (Merck Life Science) and 0.1 mg/mL RNase A (Invitrogen) in PBS, and kept in the dark for at least 30 min. Cellular DNA content was analyzed using the BD Accuri C6 Flow cytometer. At least 10 000 events per sample were acquired. FlowJo 7.6.5 software (Tree Star, Inc., Ashland, Oregon, USA) was used to determine the % of cells in the different phases of the cell cycle.
(In general: In flow cytometry, cells or beads pass a laser one at a time.)

The subject of assay [2] is NCI-H460 cells. Nature of the assay: BrdU incorporation assay (cell proliferation). Particulars: 48 h; 25 at 0.35 and 0.7 μM; doxorubicin 50 nM. On the procedure: To assess the impact of compound 25 on cell proliferation, the bromodeoxyuridine (BrdU) incorporation assay was performed.
Figure 7 Effect of compound 25 on the % of proliferating NCI-H460 cells, determined with the BrdU assay. […] (A) Percentage of BrdU-incorporating cells under different treatments. Results are the mean ± SEM from at least 3 independent experiments. * p ≤ 0.05, ** p ≤ 0.01, when comparing DMSO vs compound treatment.
At 4 h before the end of this treatment, cells were incubated with 1 μM of BrdU (Merck Life Science). After collection of cells, they were fixed with paraformaldehyde 4% (Merck Life Science) for 40 min at room temperature (RT). Then, cells were subjected to a cytospin (500 rpm for 5 min), and cellular DNA was denaturated using 2 M of HCl (Merck Life Science) for 20 min. Cells were incubated with a PBS solution containing 0.5% Tween (Promega, Madison, Wisconsin, USA) and 0.05% bovine serum albumin (BSA; Merck Life Science). The cells were further incubated with a primary monoclonal mouse anti-BrdU Clone Bu20a antibody (1:10; Dako, Glostrup, Denmark) for 1 h, followed by incubation with a polyclonal rabbit antimouse immunoglobulins/FITC secondary antibody (1:100; Dako) for 30 min at RT. […] The cells were counted using the ImageJ 2.1.0 software.
A general note: Dividing cells build labelled thymidine or BrdU into new DNA.

The next assay has as its system NCI-H460 spheroids. Put plainly: Cell Titer-Glo 3D spheroid viability assay. Particulars: 48 h; 25 at 0.35 and 0.7 μM; doxorubicin 50 nM. An excerpt:
Figure 12 Effect of compound 25 on the viability of spheroids established from two counterpart pairs of sensitive and MDR cell lines, from NSCLC (NCI-H460 and NCI-H460/R) and colorectal cancer (DLD1 and DLD1-TxR), using MicroTissue 3D Petri dishes. […] (B) Effect of compound 25 on the viability of NCI-H460 spheroids analyzed by Cell Titer-Glo 3D viability assay. (C) Effect of compound 25 on the viability of NCI-H460/R spheroids analyzed with the Cell Titer-Glo 3D viability assay. Results are presented as the % of luciferase luminescence relative to the “blank” cells (medium). […] (E) Effect of compound 25 on the viability of DLD1 spheroids analyzed by Cell Titer-Glo 3D viability assay. (F) Effect of compound 25 on the viability of DLD1-TxR spheroids analyzed with the Cell Titer-Glo 3D viability assay. Data are expressed as mean ± SEM from 3 independent experiments. * p ≤ 0.05 and ** p ≤ 0.01, when comparing DMSO vs compound treatment.
Spheroid formation was conducted in 12-series agarose 3D Petri Dish micromolds (MicroTissues Technology, MicroTissues Inc., Sigma-Aldrich). The agarose micromolds were prepared using 1% agarose in a 0.9% NaCl solution and then placed in 12-well plates and equilibrated with RPMI supplemented with 10% FBS for at least 2 h before cell seeding. Cell suspensions corresponding to 500 cells per spheroid of the NSCLC cell lines (NCI-H460 and NCI-H460/R), and 1000 cells per spheroid of the colorectal cancer cell lines (DLD1 and DLD1-TxR) were seeded in the corresponding micromolds. The choice of cell seeding concentration was based on a previous optimization assay (data not shown), ensuring that at the end of the assay the spheroids would have a size of around 400 μm. A 20 min incubation period was used for cells to settle into the micromolds and additional medium was finally added to the wells. Spheroid formation was monitored with the Leica DMi1 microscope. […] At the end of the treatment, images from at least 8 different spheroids per condition were captured on the Leica Dmi1 microscope, and posteriorly analyzed with the automated open-source software AnaSP.[82] Spheroid parameters, such as equivalent diameter, circularity, and compactness, were calculated.
Spheroid viability was determined through the luminescence-based Cell Titer-Glo 3D cell viability assay (Promega). Spheroids grown on MicroTissues 3D Petri Dish micromolds were exposed to the treatments, as described in the previous section. Then, the spheroids were transferred into 96-well plates in 50 μL of RPMI medium. […] The plate was then incubated in the dark for 5 min with agitation and allowed to rest for 25 min before luminescence measurement. Luminescence was quantified using the microplate reader Synergy MX coupled with the GEN5 software. […]
For orientation: Cellular ATP, detected with luciferase, serves as a proxy for viable cell number.

Take `COC(=O)c1c2c(c[n+]([O-])c1C)C(=O)C=C(NCc1ccccc1)C2=O` [Compound 25]: the “cells in sub-G1 phase” value in the assay on NCI-H460 cells [1] (0.35 and 0.7 μM) is given as “slight increase in the percentage of cells in the sub-G1 phase, although not statistically significant”. Also, the cell cycle profile result in the assay with NCI-H460 cells [1] was “increase in the G1 phase and decrease in the S phase”. Besides, in the assay on NCI-H460 cells [2], the “percentage of proliferating (BrdU-incorporating) cells” value is recorded as “significantly reduced the percentage of NCI-H460 proliferating cells”. Moreover, the “viability of NCI-H460 spheroids” value in the assay on NCI-H460 spheroids is “significant decrease in the viability of the spheroids”.
Consider `COc1cccc2c1C(=O)c1c(O)c3c(c(O)c1C2=O)C[C@@](O)(C(=O)CO)C[C@@H]3O[C@H]1C[C@H](N)[C@H](O)[C@H](C)O1` [doxorubicin, reference compound], for which, in the assay on NCI-H460 cells [1], the cell cycle profile entry is given as “major alterations in the cell cycle profile”. Besides, the “percentage of proliferating (BrdU-incorporating) cells” value with NCI-H460 cells [2] is given as “significantly reduced the percentage of NCI-H460 proliferating cells”. Moreover, the “viability of NCI-H460 spheroids” value in the assay on NCI-H460 spheroids is given as “did not significantly affect the viability of the spheroids”.
